Columns and labels:
THP1 cells = experiment: Proliferation inhibition based on THP1 cells (IL-4 stimulation, CTG); type: cell-based; conditions: Homo sapiens, THP-1, read-out: IC50 (uM), proliferation inhibitory activity on THP1 cells
Procedure: 1. Cell plating: cultured cells were collected and counted for viable cells with Vi-Cell XR cell counter. The cell suspension was adjusted to an appropriate concentration with the medium and then added to a 96-well cell culture plate. 80 μL of the cell suspension was added to each well of the 96-well cell culture plate. The cell plating density depended on the growth rate of the cells. The cells were cultured in corresponding incubators.
2. Drug treatment and IL-4 stimulation: firstly, a series of test compound concentration (work solution-1) was prepared using DMSO with 3× gradient dilution, and then it was subjected to fold dilution with RPMI1640+10% FBS to obtain a work solution-2; Cisplatin's work solution-2 was prepared with RPMI1640+10% FBS, and then 1-10 μL solution taken from the work solution-2 was added to the prepared cell wells containing medium. The cells were cultured in the corresponding incubators. After incubation, 1-10 μL of IL-4 medium was added to each well and continued to culture. An appropriate CTG solution was added to each well.
Cell Survial Rate Calculation
T is the luminescence reading of a drug treatment group, and C is the average luminescence reading of a solvent control group.

[1] = test system: main human CYP molecular species (CYP1A2, 2B6, 2C8, 2C9, 2C19, 2D6 and 3A4); experiment: CYP inhibition test in mixed human liver microsomes; type: in vitro ADME
Procedure: Commercially available mixed human liver microsomes were used for the typical substrate metabolism reaction of the main human CYP molecular species (CYP1A2, 2B6, 2C8, 2C9, 2C19, 2D6 and 3A4). The reaction conditions were as follows: substrate, CYP1A2: 30 μM of phenacetin; CYP2C9: diclofenac 10 μM; CYP2C19: 35 μM of S-methphenytoin; CYP3A4: midazolam 5 μM, testosterone 80 μM; CYP2D6: bufuralol, 10 μM; CYP2C8: 10 μM of paclitaxel; and CYP2B6: bupropion 70 μM; reaction time, CYP1A2, 2C9, 2D6, 2C8, 2B6: 10 min; CYP2C19: 45 min; and CYP3A4: 5 min. Reaction temperature, 37° C. Inhibitor (positive control), CYP1A2: α-naphthoflavone; CYP2C9: sulfaphenazole; CYP2C19: omeprazole; CYP3A4: ketoconazole; CYP2D6: quinidine; CYP2C8: nicardipine; and CYP2B6: clopidogrel.
A series of dilutions for the test compound and the positive control were prepared in a 96-well plate, and 8 μL of 10 mM test compound was transferred to 12 μL of ACN. 1:3 serial dilution was performed in a DMSO:ACN mixture (v/v: 40:60). HLM was added to assay wells, and then the test compound or a reference inhibitor solution diluted with serum was added to the designated wells on ice. After the 96-well plate and NADPH solution was pre-incubated at 37° C. for 5 min, 15 μL of the pre-warmed 8 mM NADPH solution was added to the assay plate to start the reaction. […]

rat CIA model = experiment: Hindfoot foot volume in rat CIA model; type: in vivo, Lewis rats; conditions: CIA rats; for Foot volume (ml)/Day: hindfoot
Procedure: (§1) Lewis rats (female, 10-12 weeks old) were obtained from Beijing Vital River Laboratory Animal Technology Co., Ltd. The rats were on a light and dark alternation for 12 h, and the environment was kept at a temperature of 23±2° C. and a humidity of 40-70%.
(§2) Type II collagen solution (2 mg/mL) was prepared with 0.05 M acetic acid solution to allow to be fully dissolved, and placed overnight in the dark at 4° C. During the test, 2 mg/mL type II collagen (C II) solution and 4 mg/mL complete Freund's adjuvant (CFA) solution were mixed in equal volumes under ice bath conditions to fully emulsify. On day 0, an emulsion prepared by mixing equal volumes of C II (2 mg/mL) and CFA (4 mg/mL) was injected intracutaneously into the base of the tail of experimental rats for primary immunization, and on day 7, secondary booster immunization was performed.
(§3) The therapeutic effect of the test compound was tested in a rat CIA model. The rats were randomly divided into groups with 8 animals in each group. All animals were immunized on day 0 and boosted on day 7.
(§4) Therefore, the differences in body weight and foot volume after the onset of arthritis compared with the negative group, respectively, can be used to evaluate the therapeutic effect in the rat model. The experimental data were expressed as Mean±SEM; the data between the two groups was tested by unpaired t-test and p<0.05 was considered as a significant difference.

[2] = 2 mg/kg oral gavage once daily for 2 w, day 0
[3] = 2 mg/kg oral gavage once daily for 2 w, day 8
[4] = 2 mg/kg oral gavage once daily for 2 w, day 11
[5] = 2 mg/kg oral gavage once daily for 2 w, day 14
[6] = 2 mg/kg oral gavage once daily for 2 w, day 17
[7] = 2 mg/kg oral gavage once daily for 2 w, day 21
[8] = 2 mg/kg oral gavage once daily for 2 w, day 24
[9] = 2 mg/kg oral gavage once daily for 2 w, day 28
[10] = 3 mg/kg oral gavage once daily for 2 w, day 0
[11] = 3 mg/kg oral gavage once daily for 2 w, day 8
[12] = 3 mg/kg oral gavage once daily for 2 w, day 11
[13] = 3 mg/kg oral gavage once daily for 2 w, day 14
[14] = 3 mg/kg oral gavage once daily for 2 w, day 17
[15] = 3 mg/kg oral gavage once daily for 2 w, day 21
[16] = 3 mg/kg oral gavage once daily for 2 w, day 24
[17] = 3 mg/kg oral gavage once daily for 2 w, day 28
[18] = 5 mg/kg oral gavage once daily for 2 w, day 0
[19] = 5 mg/kg oral gavage once daily for 2 w, day 11
[20] = 5 mg/kg oral gavage once daily for 2 w, day 14
[21] = 5 mg/kg oral gavage once daily for 2 w, day 17
[22] = 5 mg/kg oral gavage once daily for 2 w, day 21
[23] = 5 mg/kg oral gavage once daily for 2 w, day 24
[24] = 5 mg/kg oral gavage once daily for 2 w, day 28
[25] = 10 mg/kg oral gavage once daily for 2 w, day 0
[26] = 10 mg/kg oral gavage once daily for 2 w, day 8
[27] = 10 mg/kg oral gavage once daily for 2 w, day 11
[28] = 10 mg/kg oral gavage once daily for 2 w, day 14
[29] = 10 mg/kg oral gavage once daily for 2 w, day 17
[30] = 10 mg/kg oral gavage once daily for 2 w, day 21
[31] = 10 mg/kg oral gavage once daily for 2 w, day 24
[32] = 10 mg/kg oral gavage once daily for 2 w, day 28

Procedure for Body weight of CIA rats: as §1, §2, §3, §4

In the case of `O=C(Nc1cn2c(-c3ccc(CN4CCS(=O)(=O)CC4)s3)cccc2n1)[C@H]1C[C@@H]1F` (relative stereo) [EXP-3, trans-N-[5-[5-[(1,1-dioxo-1,4-thiazin-4-yl)methyl]-2-thiophene]imidazo[1,2-a]pyridin-2-yl]-2-fluoro-cyclopropylcarboxamide], the IC50 (THP1 cells) is reported as < 5 µM, the CYP inhibition [1] is reported as “no inhibitory effect” and the “foot volume, relative potency in words” value (rat CIA model; 10 mg/kg) is reported as “the most potent and significantly stronger than filgotinib 10 mg/kg”. For the same compound, the “Foot volume (ml)/Day” value (rat CIA model; [2]) was 2.603 ± 0.021 mL, the “Foot volume (ml)/Day” value (rat CIA model; [3]) was 2.590 ± 0.027 mL and the “Foot volume (ml)/Day” value (rat CIA model; [4]) was 2.634 ± 0.059 mL. For the same compound, the “Foot volume (ml)/Day” value (rat CIA model; [5]) was 3.648 ± 0.303 mL, the “Foot volume (ml)/Day” value (rat CIA model; [6]) was 4.465 ± 0.261 mL and the “Foot volume (ml)/Day” value (rat CIA model; [7]) was 4.600 mL. The “Foot volume (ml)/Day” value (rat CIA model; [8]) was 4.487 mL, the “Foot volume (ml)/Day” value (rat CIA model; [9]) was 4.181 mL and the “Foot volume (ml)/Day” value (rat CIA model; [10]) was 2.633 ± 0.017 mL. For the same compound, the “Foot volume (ml)/Day” value (rat CIA model; [11]) was 2.624 ± 0.010 mL, the “Foot volume (ml)/Day” value (rat CIA model; [12]) was 2.706 ± 0.037 mL and the “Foot volume (ml)/Day” value (rat CIA model; [13]) was 3.724 ± 0.239 mL. The “Foot volume (ml)/Day” value (rat CIA model; [14]) was 4.759 ± 0.291 mL, the “Foot volume (ml)/Day” value (rat CIA model; [15]) was 4.863 mL and the “Foot volume (ml)/Day” value (rat CIA model; [16]) was 4.754 mL. For the same compound, the “Foot volume (ml)/Day” value (rat CIA model; [17]) was 4.299 mL, the “Foot volume (ml)/Day” value (rat CIA model; [18]) was 2.631 ± 0.017 mL and the “Foot volume (ml)/Day” value (rat CIA model; [19]) was 2.703 ± 0.061 mL. The “Foot volume (ml)/Day” value (rat CIA model; [20]) was 3.684 ± 0.315 mL, the “Foot volume (ml)/Day” value (rat CIA model; [21]) was 4.516 ± 0.302 mL and the “Foot volume (ml)/Day” value (rat CIA model; [22]) was 4.724 mL. The “Foot volume (ml)/Day” value (rat CIA model; [23]) was 4.582 mL, the “Foot volume (ml)/Day” value (rat CIA model; [24]) was 4.176 mL and the “Foot volume (ml)/Day” value (rat CIA model; [25]) was 2.645 ± 0.017 mL. The “Foot volume (ml)/Day” value (rat CIA model; [26]) was 2.613 ± 0.017 mL, the “Foot volume (ml)/Day” value (rat CIA model; [27]) was 2.647 ± 0.075 mL and the “Foot volume (ml)/Day” value (rat CIA model; [28]) was 3.652 ± 0.287 mL. For the same compound, the “Foot volume (ml)/Day” value (rat CIA model; [29]) was 4.249 ± 0.342 mL, the “Foot volume (ml)/Day” value (rat CIA model; [30]) was 4.331 mL and the “Foot volume (ml)/Day” value (rat CIA model; [31]) was 4.125 mL. For the same compound, the “Foot volume (ml)/Day” value (rat CIA model; [32]) was 3.826 mL, the “Body weight (g)/Day” value (Body weight of CIA rats; [2]) was 172.3 ± 1.9 g and the “Body weight (g)/Day” value (Body weight of CIA rats; [3]) was 172.6 ± 0.7 g. For the same compound, the “Body weight (g)/Day” value (Body weight of CIA rats; [4]) was 172.3 ± 1.8 g, the “Body weight (g)/Day” value (Body weight of CIA rats; [5]) was 170.3 ± 1 g and the “Body weight (g)/Day” value (Body weight of CIA rats; [6]) was 169.1 ± 1.2 g. The “Body weight (g)/Day” value (Body weight of CIA rats; [7]) was 164.9 ± 1.8 g, the “Body weight (g)/Day” value (Body weight of CIA rats; [8]) was 166.4 ± 2.6 g and the “Body weight (g)/Day” value (Body weight of CIA rats; [9]) was 166.9 ± 2.7 g. The “Body weight (g)/Day” value (Body weight of CIA rats; [10]) was 174.5 ± 1.3 g, the “Body weight (g)/Day” value (Body weight of CIA rats; [11]) was 172.4 ± 2.7 g and the “Body weight (g)/Day” value (Body weight of CIA rats; [12]) was 170.8 ± 3.8 g. The “Body weight (g)/Day” value (Body weight of CIA rats; [13]) was 171.6 ± 2.9 g, the “Body weight (g)/Day” value (Body weight of CIA rats; [14]) was 170.1 ± 2.7 g and the “Body weight (g)/Day” value (Body weight of CIA rats; [15]) was 166.8 ± 1.8 g. The “Body weight (g)/Day” value (Body weight of CIA rats; [16]) was 165 ± 1.8 g, the “Body weight (g)/Day” value (Body weight of CIA rats; [17]) was 169.3 ± 2 g and the “Body weight (g)/Day” value (Body weight of CIA rats; [18]) was 171.8 ± 2.3 g. The “Body weight (g)/Day” value (Body weight of CIA rats; 5 mg/kg oral gavage once daily for 2 w, day 8) was 171.1 ± 3.1 g, the “Body weight (g)/Day” value (Body weight of CIA rats; [19]) was 170.9 ± 4.5 g and the “Body weight (g)/Day” value (Body weight of CIA rats; [20]) was 171.4 ± 2.4 g. For the same compound, the “Body weight (g)/Day” value (Body weight of CIA rats; [21]) was 172.8 ± 2.2 g, the “Body weight (g)/Day” value (Body weight of CIA rats; [22]) was 166.5 ± 1.9 g and the “Body weight (g)/Day” value (Body weight of CIA rats; [23]) was 165.3 ± 1.7 g. For the same compound, the “Body weight (g)/Day” value (Body weight of CIA rats; [24]) was 169.1 ± 2.1 g, the “body weight course, in words” value (Body weight of CIA rats; 10 mg/kg) was “increased slightly on days 11-17, but then fell back” and the “Body weight (g)/Day” value (Body weight of CIA rats; [25]) was 173.9 ± 1.8 g. The “Body weight (g)/Day” value (Body weight of CIA rats; [26]) was 175.3 ± 2.1 g, the “Body weight (g)/Day” value (Body weight of CIA rats; [27]) was 175.9 ± 2.8 g and the “Body weight (g)/Day” value (Body weight of CIA rats; [28]) was 175.3 ± 2.2 g. The “Body weight (g)/Day” value (Body weight of CIA rats; [29]) was 176.4 ± 3.3 g, the “Body weight (g)/Day” value (Body weight of CIA rats; [30]) was 171.8 ± 2.9 g and the “Body weight (g)/Day” value (Body weight of CIA rats; [31]) was 166.3 ± 2.9 g. The “Body weight (g)/Day” value (Body weight of CIA rats; [32]) was 170.4 ± 3.1 g.
For `O=C(Nc1nc2cccc(-c3ccc(CN4CCS(=O)(=O)CC4)s3)n2n1)C1CC1` [EXP-1], the IC50 (THP1 cells) was < 5 µM.

— US20220274983A1, “JAK KINASE INHIBITOR AND USE THEREOF” (JIANGSU CAREPHAR PHARMACEUTICAL CO., LTD., priority 2019, published 2022)
